Laboratory results reported in US8747873B2, “Compositions of dibromomalonamide and their use as biocides” (Dow Global Technologies LLC, priority 2012, dated 2014).
Where two headings read alike, the source gives them in different places.

How the values were obtained:
[1] = system: mixture of Pseudomonas aeruginosa, Klebsiella pneumoniae, Staphylococcus aureus, and Bacillus subtilis; assay: Growth inhibition assay; format: cell-based; details: for % Inhibition of growth by CTAC: Table 3, single active
Excerpt: The growth inhibition assay used in the Examples measures inhibition of growth (or lack thereof) of a microbial consortium. Inhibition of growth can be the result of killing of the cells (so no growth occurs), killing of a significant portion of the populations of cells so that regrowth requires a prolonged time, or inhibition of growth without killing (stasis). Regardless of the mechanism of action, the impact of a biocide (or combination of biocides) can be measured over time on the basis of an increase in the size of the community.
The assay measures the efficacy of one or more biocides at preventing growth of a consortium of bacteria in a dilute mineral salts medium. The medium contains (in mg/l) the following components: FeCl3.6H2O (1); CaCl2.2H2O (10); MgSO4.7H2O (22.5); (NH4)2SO4 (40); KH2PO4 (10); K2HPO4 (25.5); Yeast Extract (10); and glucose (100). After all components are added to deionized water, the pH of the medium is adjusted to 7.5. Following filter sterilization, aliquots are dispensed in 100 ul quantities to sterile microtiter plate wells. Dilutions of DBMAL and/or “Biocide B” are then added to the microtiter plate. After preparing the combinations of actives as illustrated below, each well is inoculated with 100 μl of a cell suspension containing ca. 1×10^6 cells per milliliter of a mixture of Pseudomonas aeruginosa, Klebsiella pneumoniae, Staphylococcus aureus, and Bacillus subtilis. The final total volume of medium in each well is 300 μl. […] The resulting matrix allows testing of eight concentrations of each active and 64 combinations of actives in the ratios (of actives).
Controls (not shown) contain the medium with no biocide added. After preparing the combinations of actives as illustrated above, each well is inoculated with 100 μl of a cell suspension containing ca. 1×10^6 cells per milliliter of a mixture of Pseudomonas aeruginosa, Klebsiella pneumoniae, Staphylococcus aureus, and Bacillus subtilis. The final total volume of medium in each well is 300 μl.
Immediately after the microtiter plates are prepared, the optical density (OD) readings for each well is measured at 580 nm and the plates are then incubated at 37° C. for 24 hr. After the incubation period, the plates are gently agitated before OD580 values are collected. The OD580 values at T0 are subtracted from T24 values to determine the total amount of growth (or lack thereof) that occurs. These values are used to calculate the percent inhibition of growth caused by the presence of each biocide and each of the 64 combinations. A 90% inhibition of growth is used as a threshold for calculating synergy index (SI) values with the following equation: Synergy Index=MDBMAL/CDBMAL+MB/CB
where • CDBMAL: Concentration of DBMAL required to inhibit ˜90% of bacterial growth when used alone • CB: Concentration of biocide (B) required to inhibit ˜90% of bacterial growth when used alone. • MDBMAL: Concentration of DBMAL required to inhibit ˜90% of bacterial growth when used in combination with biocide (B). • MB: Concentration of biocide (B) required to inhibit ˜90% of bacterial growth when used in combination with DBMAL The SI values are interpreted as follows: • SI<1: Synergistic combination • SI=1: Additive combination • SI>1: Antagonistic combination

[2] = system: mixture of Pseudomonas aeruginosa ATCC 10145 and Staphylococcus aureus ATCC 6538; assay: Kill assay (MBC, synergy index); format: cell-based; details: 37° C., 2 hours
Experimental: This assay is used as a preliminary evaluation of synergy between the actives. The procedure is as follows. A mineral salts solution (0.2203 g of CaCl2, 0.1847 g of MgSO4, and 0.2033 g of NaHCO3 in 1 L water, approximately pH 8) is inoculated with equal amounts (about 10^7 CFU/ml) of a mixture of Pseudomonas aeruginosa ATCC 10145 and Staphylococcus aureus ATCC 6538. Aliquots of the cell suspension are then treated with 2,2-dibromomalonamide (“DBMAL”), […], and their combinations at various concentration levels. […] The MBC values are then used to calculate a synergy index (SI) values.
Summaries of the kill assay results are presented in the individual Examples. In each table, MBC values for each biocide and the blends tested are presented Likewise, the Synergy Index (“SI”) values for the combinations are listed. SI is calculated with the following equation: Synergy Index=Ca/CA+Mb/CB […]

## CCN1CN(CC)CN(CC)C1 [TEHT, 1,3,5-Triethylhexahydro-s-triazine]
[1]; 24 h, TEHT alone 0.19 mg/l, read-out: % Inhibition of growth by TEHT
  inhibition at 0.19 µg/mL: 10%
[1]; 24 h, TEHT alone 0.39 mg/l, read-out: % Inhibition of growth by TEHT
  inhibition at 0.39 µg/mL: 11%
[1]; 24 h, TEHT alone 0.78 mg/l, read-out: % Inhibition of growth by TEHT
  inhibition at 0.78 µg/mL: 10%
[1]; 24 h, TEHT alone 1.56 mg/l, read-out: % Inhibition of growth by TEHT
  inhibition at 1.56 µg/mL: 22%
[1]; 24 h, TEHT alone 3.13 mg/l, read-out: % Inhibition of growth by TEHT
  inhibition at 3.13 µg/mL: 49%
[1]; 24 h, TEHT alone 6.25 mg/l, read-out: % Inhibition of growth by TEHT
  inhibition at 6.25 µg/mL: 82%
[1]; 24 h, TEHT alone 12.5 mg/l, read-out: % Inhibition of growth by TEHT
  inhibition at 12.5 µg/mL: 98%
[1]; 24 h, TEHT alone 25.0 mg/l, read-out: % Inhibition of growth by TEHT
  inhibition at 25 µg/mL: 100%

## 1-(3-chloroallyl)-3,5,7-triaza-1-azoniaadamantane chloride [CTAC]
[1]; CTAC Concn. 3.91 mg/l, 24 h
  % Inhibition of growth by CTAC: 0%
[1]; CTAC Concn. 7.81 mg/l, 24 h
  % Inhibition of growth by CTAC: 18%
[1]; CTAC Concn. 15.63 mg/l, 24 h
  % Inhibition of growth by CTAC: 20%
[1]; CTAC Concn. 31.25 mg/l, 24 h
  % Inhibition of growth by CTAC: 21%
[1]; CTAC Concn. 62.5 mg/l, 24 h
  % Inhibition of growth by CTAC: 0%
[1]; CTAC Concn. 125.0 mg/l, 24 h
  % Inhibition of growth by CTAC: 100%
[1]; CTAC Concn. 250.0 mg/l, 24 h
  % Inhibition of growth by CTAC: 100%
[1]; CTAC Concn. 500.0 mg/l, 24 h
  % Inhibition of growth by CTAC: 100%

## ClC=CC[N+]12CN3CN(CN(C3)C1)C2 [CTAC, 1-(3-chloroallyl)-3,5,7-triaza-1-azoniaadamantane chloride]
[1]; 24 h, Table 6, CTAC alone 1.95 mg/l
  inhibition at 1.95 µg/mL: 0%
[1]; 24 h, Table 6, CTAC alone 3.91 mg/l
  inhibition at 3.91 µg/mL: 0%
[1]; 24 h, Table 6, CTAC alone 7.81 mg/l, read-out: % Inhibition of growth by CTAC
  inhibition at 7.81 µg/mL: 9%
[1]; 24 h, Table 6, CTAC alone 15.625 mg/l
  inhibition at 15.625 µg/mL: 0%
[1]; 24 h, Table 6, CTAC alone 31.25 mg/l, read-out: % Inhibition of growth by CTAC
  inhibition at 31.25 µg/mL: 35%
[1]; 24 h, Table 6, CTAC alone 62.5 mg/l, read-out: % Inhibition of growth by CTAC
  inhibition at 62.5 µg/mL: 41%
[1]; 24 h, Table 6, CTAC alone 125.0 mg/l, read-out: % Inhibition of growth by CTAC
  inhibition at 125 µg/mL: 100%
[1]; 24 h, Table 6, CTAC alone 250.0 mg/l, read-out: % Inhibition of growth by CTAC
  inhibition at 250 µg/mL: 98%

## CCC12COCN1COC2 [EBO, 7-ethyl bicyclooxazolidine]
[1]; EBO alone 7.81 mg/l, 24 h
  % Inhibition of growth by EBO: 0%
[1]; EBO alone 15.63 mg/l, 24 h
  % Inhibition of growth by EBO: 0%
[1]; EBO alone 31.25 mg/l, 24 h
  % Inhibition of growth by EBO: 0%
[1]; EBO alone 62.5 mg/l, 24 h
  % Inhibition of growth by EBO: 3%
[1]; EBO alone 125.0 mg/l, 24 h
  % Inhibition of growth by EBO: 10%
[1]; EBO alone 250.0 mg/l, 24 h
  % Inhibition of growth by EBO: 71%
[1]; EBO alone 500.0 mg/l, 24 h
  % Inhibition of growth by EBO: 96%
[1]; EBO alone 1000.0 mg/l, 24 h
  % Inhibition of growth by EBO: 100%

## O=[N+]([O-])C(CO)(CO)CO [TN, tris(hydroxymethyl)nitromethane]
[1]; 24 h, TN alone 7.81 mg/l, read-out: % Inhibition of growth by TN
  inhibition at 7.81 µg/mL: 0%
[1]; 24 h, TN alone 15.63 mg/l, read-out: % Inhibition of growth by TN
  inhibition at 15.63 µg/mL: 4%
[1]; 24 h, TN alone 31.25 mg/l, read-out: % Inhibition of growth by TN
  inhibition at 31.25 µg/mL: 0%
[1]; 24 h, TN alone 62.5 mg/l, read-out: % Inhibition of growth by TN
  inhibition at 62.5 µg/mL: 50%
[1]; 24 h, TN alone 125.0 mg/l, read-out: % Inhibition of growth by TN
  inhibition at 125 µg/mL: 100%
[1]; 24 h, TN alone 250.0 mg/l, read-out: % Inhibition of growth by TN
  inhibition at 250 µg/mL: 100%
[1]; 24 h, TN alone 500.0 mg/l, read-out: % Inhibition of growth by TN
  inhibition at 500 µg/mL: 100%
[1]; 24 h, TN alone 1000.0 mg/l, read-out: % Inhibition of growth by TN
  inhibition at 1000 µg/mL: 100%

## CC1(C)COCN1 [4,4-D, 4,4-Dimethyloxazolidine]
[1]; 24 h, 4,4-D alone 7.81 mg/l, read-out: % Inhibition of growth by 4,4-D
  inhibition at 7.81 µg/mL: 0%
[1]; 24 h, 4,4-D alone 15.63 mg/l, read-out: % Inhibition of growth by 4,4-D
  inhibition at 15.63 µg/mL: 2%
[1]; 24 h, 4,4-D alone 31.25 mg/l, read-out: % Inhibition of growth by 4,4-D
  inhibition at 31.25 µg/mL: 13%
[1]; 24 h, 4,4-D alone 62.5 mg/l, read-out: % Inhibition of growth by 4,4-D
  inhibition at 62.5 µg/mL: 98%
[1]; 24 h, 4,4-D alone 125.0 mg/l, read-out: % Inhibition of growth by 4,4-D
  inhibition at 125 µg/mL: 100%
[1]; 24 h, 4,4-D alone 250.0 mg/l, read-out: % Inhibition of growth by 4,4-D
  inhibition at 250 µg/mL: 99%
[1]; 24 h, 4,4-D alone 500.0 mg/l, read-out: % Inhibition of growth by 4,4-D
  inhibition at 500 µg/mL: 100%
[1]; 24 h, 4,4-D alone 1000.0 mg/l, read-out: % Inhibition of growth by 4,4-D
  inhibition at 1000 µg/mL: 100%

## O=CCCCC=O [Glut, glutaraldehyde]
[1]; biocide alone, 24 h
  concentration needed to provide at least 90% inhibition of growth: 125 mg/L
[2]
  MBC (minimum biocide concentration needed to completely kill), biocide alone: 29.6 µg/mL
